Measurements from article PMC5963591, “Bitopic Binding Mode of an M1 Muscarinic Acetylcholine Receptor Agonist Associated with Adverse Clinical Trial Outcomes” (Molecular Pharmacology, 2018).

Assays:
[1] = target: T1, M2 mAChR (Homo sapiens, UniProt P08172); test: ERK1/2 phosphorylation, CHO cells, M2; type: cell-based
T1 construct: expressed in transfected cells; host or cells: CHO

[2] = target: T2, M2 mAChR (isolated rat atria) (Rattus norvegicus, UniProt P10980); test: Isolated rat atria, negative inotropic response; details: single experiment
T2 construct: from tissue; host or cells: left atria of adult Wistar rats
T2 sequence (P10980 1-466): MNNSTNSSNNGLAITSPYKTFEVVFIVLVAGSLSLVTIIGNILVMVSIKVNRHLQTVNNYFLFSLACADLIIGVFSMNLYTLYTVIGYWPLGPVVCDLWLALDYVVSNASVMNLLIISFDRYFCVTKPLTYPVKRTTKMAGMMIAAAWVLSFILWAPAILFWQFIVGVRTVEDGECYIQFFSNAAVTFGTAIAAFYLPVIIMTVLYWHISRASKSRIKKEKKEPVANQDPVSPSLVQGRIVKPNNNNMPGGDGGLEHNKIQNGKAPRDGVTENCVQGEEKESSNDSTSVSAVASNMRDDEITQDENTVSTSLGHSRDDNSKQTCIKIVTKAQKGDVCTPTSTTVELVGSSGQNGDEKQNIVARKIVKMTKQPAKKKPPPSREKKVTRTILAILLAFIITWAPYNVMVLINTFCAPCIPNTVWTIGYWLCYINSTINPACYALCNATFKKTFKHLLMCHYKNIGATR
Procedure: Adult Wistar rats were humanely euthanized and the left atria and the ileum were placed in an organ bath containing oxygenated Tyrode solution. Measurement of negative inotropic responses in atria or contraction of ileum was performed as described by [Lambrecht et al. (1989)]. For atrial responses, ligands were administered for 5 minutes at 32°C in McEwen’s buffer (pH 7.4) in a bath volume of 10 ml. […] For rat ileum experiments, ligands were administered for 5 minutes at 32°C in Krebs’ buffer (pH 7.4) in a bath volume of 10 ml. Contraction of ileum as a percentage of methacholine-induced contraction was measured, and antagonistic effects were measured by inhibition of methacholine-induced responses.

[3] = target: T3, human M1 receptor (Homo sapiens, UniProt P11229); test: ERK1/2 phosphorylation, CHO Flp-In human M1 cells; type: cell-based
T3 construct: expressed in transfected cells; host or cells: CHO Flp-In
T3 sequence (P11229 1-460): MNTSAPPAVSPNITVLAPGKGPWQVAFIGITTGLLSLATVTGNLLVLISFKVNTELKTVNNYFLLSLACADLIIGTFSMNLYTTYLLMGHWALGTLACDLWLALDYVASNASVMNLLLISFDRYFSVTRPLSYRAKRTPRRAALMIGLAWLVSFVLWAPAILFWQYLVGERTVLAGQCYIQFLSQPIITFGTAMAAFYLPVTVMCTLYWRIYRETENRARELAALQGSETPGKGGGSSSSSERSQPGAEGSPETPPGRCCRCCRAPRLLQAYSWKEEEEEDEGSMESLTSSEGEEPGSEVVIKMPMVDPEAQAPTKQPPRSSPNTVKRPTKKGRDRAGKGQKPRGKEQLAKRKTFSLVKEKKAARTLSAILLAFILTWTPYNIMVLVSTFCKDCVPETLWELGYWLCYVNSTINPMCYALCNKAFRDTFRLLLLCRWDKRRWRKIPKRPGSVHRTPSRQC
Procedure: CHO Flp-In cells stably expressing the human M1 receptor were seeded onto transparent 96-well plates at 20,000 cells/well and grown to confluence. Cells were serum starved overnight prior to the experiment. Prior to the stimulations, cells were washed with 100 μl phosphate-buffered saline and then incubated in serum free F12 medium at 37°C. Cells were stimulated with ligands for 5 minutes at 37°C in a final volume of 200 μl. The stimulations were terminated by rapid aspiration and addition of 50 μl lysis buffer supplemented with blocking reagent per the manufacturer’s instructions, followed by gentle agitation at room temperature for 30 minutes. Subsequently, 16 μl of this lysate was transferred to a 384-well white ProxiPlate (PerkinElmer) and incubated with 4 μl premixed antibody solution for 2 hours at room temperature.
For the analysis, all families of agonist curves at each pathway were globally fitted to the model with the parameters, basal, Em, and n shared between all agonists. For full agonists, the LogKA was constrained to a value of zero, whereas for partial agonists this was directly estimated by the curve fitting procedure; the Log(τ/KA) parameter was estimated as a unique measure of activity for each agonist.

[4] = target: T4, human M1 mAChR (Homo sapiens, UniProt P11229); test: Equilibrium [3H]-NMS binding, CHO Flp-In cell monolayers, wild-type M1; design: expressed in transfected cells; host or cells: CHO Flp-In
T4 sequence (P11229 1-460): T3 sequence (P11229 1-460)
Procedure: (§1) Prior to the experiment, cells were washed with 100 μl phosphate-buffered saline. […] Binding was terminated by rapid aspiration followed by two washes with 200 μl ice-cold 0.9% NaCl. Bound radioactivity was determined by liquid scintillation (Ultima Gold; PerkinElmer, Boston, MA) counting. Nonspecific binding was determined in the presence of 10 μM atropine.
(§2) Inhibition binding data were curve-fit using GraphPad Prism 6 to derive the potency (IC50) of the test compound. The equilibrium dissociation constant (KI) of the test compound was then calculated with the Cheng–Prusoff equation: KI = IC50/[1 + ([L]/KD)] using the KD value derived separately from saturation binding studies.

[5] = test system: humans; design: method as in Nathan et al., 2013; details: ref Nathan et al., 2013; cited from earlier work
[6] = target: T4, human M1 mAChR; test: Kinetic [3H]-NMS binding (dissociation) in membranes; design: expressed in transfected cells; host or cells: CHO Flp-In; details: compound 10 μM plus atropine 10 μM
Procedure: Reactions were terminated by rapid filtration onto GF/B filter paper (Whatman, Maidstone, UK) and three washes with 3 ml ice-cold 0.9% NaCl using a Brandel harvester (M-24TI; Brandel, Fort Lauderdale, FL). Membrane bound radioactivity was determined by liquid scintillation (Ultima Gold; PerkinElmer) counting.

[7] = target: T5, humanized M1 DREADD (Homo sapiens, UniProt P11229, A196G/Y106C); test: Equilibrium [3H]-NMS binding, CHO Flp-In cell monolayers, M1 DREADD
T5 construct: expressed in transfected cells; host or cells: CHO Flp-In
Procedure: as §1, §2

[8] = test system: rodents; design: method as in Budzik et al., 2010; details: ref Budzik et al., 2010; cited from earlier work

T5 sequence (P11229 whole entry Y106C/A196G): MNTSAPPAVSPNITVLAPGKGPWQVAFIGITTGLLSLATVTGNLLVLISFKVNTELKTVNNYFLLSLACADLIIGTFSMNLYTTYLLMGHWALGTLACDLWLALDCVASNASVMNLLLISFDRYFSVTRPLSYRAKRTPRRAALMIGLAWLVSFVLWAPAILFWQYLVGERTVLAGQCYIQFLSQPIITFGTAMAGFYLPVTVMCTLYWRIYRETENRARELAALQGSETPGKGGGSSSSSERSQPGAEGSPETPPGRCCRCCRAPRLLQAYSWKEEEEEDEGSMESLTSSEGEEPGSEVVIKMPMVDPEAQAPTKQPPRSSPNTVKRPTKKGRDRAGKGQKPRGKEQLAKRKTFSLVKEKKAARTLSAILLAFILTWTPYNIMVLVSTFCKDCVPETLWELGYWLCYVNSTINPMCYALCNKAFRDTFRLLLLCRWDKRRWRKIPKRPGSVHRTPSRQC
T1 sequence (P08172 whole entry): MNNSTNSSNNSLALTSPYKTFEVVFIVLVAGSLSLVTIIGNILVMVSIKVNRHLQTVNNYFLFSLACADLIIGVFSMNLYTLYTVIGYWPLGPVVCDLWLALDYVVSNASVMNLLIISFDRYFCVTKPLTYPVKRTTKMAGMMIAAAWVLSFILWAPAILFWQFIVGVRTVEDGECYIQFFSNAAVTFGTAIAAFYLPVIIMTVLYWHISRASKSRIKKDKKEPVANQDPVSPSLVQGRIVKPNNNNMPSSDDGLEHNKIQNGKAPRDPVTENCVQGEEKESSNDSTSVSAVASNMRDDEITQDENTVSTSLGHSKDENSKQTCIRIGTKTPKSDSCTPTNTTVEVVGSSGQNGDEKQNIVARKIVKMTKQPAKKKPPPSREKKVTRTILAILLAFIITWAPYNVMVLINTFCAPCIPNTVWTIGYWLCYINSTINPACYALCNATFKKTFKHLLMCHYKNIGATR

Structure (SMILES): Cc1cc(F)c2[nH]c(=O)n(C3CCN(C4CCOCC4)CC3)c2c1 [GSK1034702, 7-fluoro-5-methyl-3-[1-(oxan-4-yl)piperidin-4-yl]-1H-benzimidazol-2-one]
- functional activity in ERK1/2 phosphorylation [1]: partial agonist activity
- IC50 ([2]; methacholine 1 μM, read-out: IC50, inhibition of methacholine-induced responses in rat atria): 8000 nM
- maximal negative inotropic response in rat atria ([2]; relative to methacholine): maximal response equivalent to that of methacholine
- potency, negative inotropic response in rat atria [2]: micromolar potency
- ERK1/2 Phosphorylation ΔLog10(τ/KA) ([3]; normalized to reference ligand ACh): 0.1 ± 0.1
- ERK1/2 Phosphorylation Log10(τ/KA) ([3]; transduction coefficient, wild-type M1 mAChR): 7.2 ± 0.1
- Ki [4]: 316 nM
- inhibition of [^3H]-NMS binding ([4]; [^3H]-NMS 0.5 nM, CHO Flp-In cell monolayers): fully inhibited
- adverse effects [5]: induced gastrointestinal adverse effects
- effect on cognitive function [5]: positive effects on cognitive function
- effect on the [^3H]-NMS dissociation rate [6]: no effect
- Ki [7]: 1000 nM
- effect on scopolamine-induced amnesia [8]: reversed scopolamine-induced amnesia
